Results: PMC10033419, “Blocking NS3–NS4B interaction inhibits dengue virus in non-human primates” (Nature, 2023)
Where “and” joins values, the source holds several entries; their conditions need not be identical. Equal entries are not always repeated. Where two headings read alike, the source gives them in different places.

Test system: DENV-2 RL
Assay: microbe, parasite or virus in culture
Assay type: cell-based
Details: Dengue virus, DENV2, Vero

COc1cc(N[C@H](C(=O)c2c[nH]c3ccc(OC(F)(F)F)cc23)c2ccc(Cl)cc2OC)cc(S(C)(=O)=O)c1 [JNJ-1802]
EC50 (read-out: EC50 values Ave, B sample, passage 8): 0.126 nM
EC50 (read-out: EC50 values Ave, B sample, passage 9): 0.126 nM
EC50 (read-out: EC50 values Ave, B sample, passage 10): 0.126 nM
EC50 (read-out: EC50 values Ave, B sample, passage 11): 0.000146 µg/mL and 0.251 nM
EC50 (read-out: EC50 values Ave, B sample, passage 12): 0.000146 µg/mL and 0.251 nM
EC50 (read-out: EC50 values Ave, B sample, passage 13): 0.000293 µg/mL and 0.503 nM
EC50 (read-out: EC50 values Ave, B sample, passage 14): 0.126 nM
EC50 (read-out: EC50 values Ave, B sample, passage 15): 0.126 nM
EC50 (read-out: EC50 values Ave, B sample, passage 16): 0.000146 µg/mL and 0.251 nM
EC50 (read-out: EC50 values Ave, B sample, passage 17): 0.000146 µg/mL and 0.251 nM
EC50 (read-out: EC50 values Ave, B sample, passage 18): 0.000146 µg/mL and 0.251 nM
EC50 (read-out: EC50 values Ave, B sample, passage 19): 0.000293 µg/mL and 0.503 nM
EC50 (read-out: EC50 values Ave, B sample, passage 20): 0.000293 µg/mL and 0.503 nM
EC50 (read-out: EC50 values Ave, B sample, passage 21): 0.000293 µg/mL and 0.503 nM
EC50 (read-out: EC50 values Ave, B sample, passage 22): 0.000293 µg/mL and 0.503 nM
EC50 (read-out: EC50 values Ave, B sample, passage 23): 1.01 nM
EC50 (read-out: EC50 values Ave, B sample, passage 24): 0.00117 µg/mL and 2.01 nM
EC50 (read-out: EC50 values Ave, B sample, passage 25): 0.00234 µg/mL and 4.02 nM
EC50 (read-out: EC50 values Ave, B sample, passage 26): 0.00469 µg/mL and 8.04 nM
EC50 (read-out: EC50 values Ave, B sample, passage 27): 0.00469 µg/mL and 8.04 nM
EC50 (read-out: EC50 values Ave, B sample, passage 28): 0.00469 µg/mL and 8.04 nM
EC50 (read-out: EC50 values Ave, B sample, passage 31): 0.0234 µg/mL and 40.2 nM
EC50 (read-out: EC50 values Ave, B sample, passage 32): 0.0234 µg/mL and 40.2 nM
EC50 (read-out: EC50 values Ave, B sample, passage 33): 0.0469 µg/mL and 80.4 nM
EC50 (read-out: EC50 values Ave, B sample, passage 34): 0.0469 µg/mL and 80.4 nM
EC50 (read-out: EC50 values Ave, B sample, passage 35): 0.0469 µg/mL and 80.4 nM
EC50 (read-out: EC50 values Ave, B sample, passage 36): 0.0469 µg/mL and 80.4 nM
EC50 (read-out: EC50 values Ave, B sample, passage 37): 0.0469 µg/mL and 80.4 nM
EC50 (read-out: EC50 values Ave, B sample, passage 38): 0.0469 µg/mL and 80.4 nM
EC50 (read-out: EC50 values Ave, B sample, passage 39): 0.0938 µg/mL and 161 nM
EC50 (read-out: EC50 values Ave, B sample, passage 40): 322 nM
EC50 (read-out: EC50 values Ave, B sample, passage 41): 0.375 µg/mL and 643 nM
EC50 (read-out: EC50 values Ave, B sample, passage 42): 0.375 µg/mL and 643 nM
EC50 (read-out: EC50 values Ave, B sample, passage 43): 0.375 µg/mL and 643 nM
EC50 (read-out: EC50 values Ave, B sample, passage 44): 0.375 µg/mL and 643 nM
EC50 (read-out: EC50 values Ave, B sample, passage 45): 0.375 µg/mL and 643 nM
EC50 (read-out: EC50 values Ave, B sample, passage 46): 0.375 µg/mL and 643 nM
EC50 (read-out: EC50 values Ave, B sample, passage 47): 0.375 µg/mL and 643 nM
EC50 (read-out: EC50 values Ave, B sample, passage 48): 1290 nM
EC50 (read-out: EC50 values Ave, B sample, passage 49): 1290 nM
EC50 (read-out: EC50 values Ave, B sample, passage 50 (END)): 1290 nM
EC50 (read-out: EC50 values [Well 1], A sample, passage 1): 0.049 ng/mL
EC50 (read-out: EC50 values [Well 1], A sample, passage 2): 0.049 ng/mL
EC50 (read-out: EC50 values [Well 1], A sample, passage 3): 0.049 ng/mL
EC50 (read-out: EC50 values [Well 1], A sample, passage 4): 0.049 ng/mL
EC50 (read-out: EC50 values [Well 1], A sample, passage 5): 0.049 ng/mL
EC50 (read-out: EC50 values [Well 1], A sample, passage 7): 0.049 ng/mL
EC50 (read-out: EC50 values [Well 1], A sample, passage 8): 0.049 ng/mL
EC50 (read-out: EC50 values [Well 1], A sample, passage 10): 0.195 ng/mL
EC50 (read-out: EC50 values [Well 1], A sample, passage 11): 0.195 ng/mL
EC50 (read-out: EC50 values [Well 1], A sample, passage 12): 0.195 ng/mL
EC50 (read-out: EC50 values [Well 1], A sample, passage 13): 0.391 ng/mL
EC50 (read-out: EC50 values [Well 1], A sample, passage 16): 1.56 ng/mL
EC50 (read-out: EC50 values [Well 1], A sample, passage 17): 3.13 ng/mL
EC50 (read-out: EC50 values [Well 1], A sample, passage 18): 6.25 ng/mL
EC50 (read-out: EC50 values [Well 1], A sample, passage 20): 25 ng/mL
EC50 (read-out: EC50 values [Well 1], A sample, passage 21): 25 ng/mL
EC50 (read-out: EC50 values [Well 1], A sample, passage 22): 25 ng/mL
EC50 (read-out: EC50 values [Well 1], A sample, passage 23): 25 ng/mL
EC50 (read-out: EC50 values [Well 1], A sample, passage 24): 50 ng/mL
EC50 (read-out: EC50 values [Well 1], A sample, passage 25): 50 ng/mL
EC50 (read-out: EC50 values [Well 1], A sample, passage 26): 100 ng/mL
EC50 (read-out: EC50 values [Well 1], A sample, passage 27): 200 ng/mL
EC50 (read-out: EC50 values [Well 1], A sample, passage 28): 200 ng/mL
EC50 (read-out: EC50 values [Well 1], A sample, passage 29): 200 ng/mL
EC50 (read-out: EC50 values [Well 1], A sample, passage 30): 200 ng/mL
EC50 (read-out: EC50 values [Well 1], A sample, passage 31): 100 ng/mL
